Values belong to the compound of their own block, whether it stands above or below them. Calls of active or inactive are those of the source. No cut-off for these calls is given here.
Assays:
[1] = Fluorescent property of compound in DMSO assessed as wavelength of emission; type: physicochemical
[2] = Fluorescent property of compound in acetonitrile assessed as wavelength of excitation; type: physicochemical
[3] = Fluorescent property of compound in methanol assessed as wavelength of excitation; type: physicochemical
[4] = Fluorescent property of compound in chloroform as wavelength of excitation; type: physicochemical
PC-12 [5] = test: Induction of neural differentiation in rat PC12 cells assessed as increase in Tuj-1 expression at 10 uM incubated for 96 hrs by immunofluorescence staining based assay; type: functional, cell-based
[6] = Fluorescent property of compound in methanol assessed as wavelength of emission; type: physicochemical
[7] = Fluorescent property of compound in chloroform assessed as wavelength of emission; type: physicochemical
[8] = Fluorescent property of compound in acetonitrile assessed as wavelength of emission; type: physicochemical
[9] = Drug uptake in rat PC12 cells at 20 uM incubated upto 2 hrs by HPLC analysis; type: ADME, cell-based; settings: pc-12, 2 h
[10] = Fluorescent property of compound in toluene assessed as wavelength of emission; type: physicochemical
PC-12 [11] = test: Neuritogenic activity in rat PC12 cells assessed as induction of neural differentiation at 5 to 10 uM incubated for 96 hrs by microscopic analysis; type: functional, cell-based; settings: dose 5-10 µM
[12] = Drug uptake in cytoplasm of rat PC12 cells incubated for 24 hrs by fluorescence staining based microscopy; type: ADME, subcellular; settings: pc12, 24 h
PC-12 [13] = test: Neuritogenic activity in NGF-insensitive rat PC12 cells assessed as fold increase in induction of neural differentiation at 20 uM incubated for 96 hrs by microscopic analysis relative to control; type: functional
PC-12 [14] = test: Neuritogenic activity in rat PC12 cells assessed as induction of neural differentiation incubated for 96 hrs by microscopic analysis; type: functional, cell-based; settings: dose > 5.0 µM
[15] = Fluorescent property of compound in toluene assessed as wavelength of excitation; type: physicochemical
[16] = Fluorescent property of compound in DMSO assessed as wavelength of excitation; type: physicochemical
[17] = Drug uptake in rat PC12 cells by HPLC analysis; type: ADME, cell-based; settings: pc-12
[18] = Drug metabolism in rat PC12 cells assessed as formation of 3-amino-5,6,7,8-tetrahydrothieno[2,3-b]quinoline-2-carbonitrile metabolite by HPLC analysis; type: ADME, cell-based; settings: pc-12
[19] = Drug metabolism in rat PC12 cells assessed as formation of 3-amino-5,6,7,8-tetrahydrothieno[2,3-b]quinoline-2-carbonitrile metabolite by fluorescence based assay; type: ADME, cell-based; settings: pc-12
[20] = Drug uptake in rat PC12 cells by fluorescence based assay; type: ADME, cell-based; settings: pc-12

Activity [1]: 478 nm
Activity [2]: 345 nm
Activity [3]: 356 nm
Activity [4]: 343 nm
Activity [6]: 485 nm
Activity [7]: 453 nm
Activity [8]: 460 nm
Drug uptake [9]: Active
Activity [10]: 434 nm
Drug uptake [12]: Active
Activity [15]: 343 nm
Activity [16]: 359 nm
SMILES: N#Cc1sc2nc3c(cc2c1N)CCCC3
Activity (PC-12 [5]): Active
Activity (PC-12 [11]): Active
fold change (FC) (PC-12 [13]): 20
Activity (PC-12 [14]): Dose-Dependent Effect

SMILES: N#Cc1sc2nc3c(cc2c1N)CCC3
Activity (PC-12 [11]): Active

SMILES: CC(=O)c1sc2nc3c(cc2c1N)CCCC3
Activity (PC-12 [11]): inactive

SMILES: N#Cc1sc2nc(N3CCCCC3)c3c(c2c1N)CCCC3
Activity (PC-12 [11]): inactive

SMILES: N#Cc1sc2ncccc2c1N
Activity (PC-12 [11]): inactive

SMILES: N#Cc1sc2nc(N3CCOCC3)c3c(c2c1N)CCCC3
Activity (PC-12 [11]): inactive

SMILES: N#Cc1sc2ncc3c(c2c1N)CCCC3
Activity (PC-12 [11]): Active

SMILES: NC(=O)c1sc2nc3c(cc2c1N)CCCC3
Activity (PC-12 [11]): inactive

Drug uptake [17]: Active
Drug metabolism [18]: Metabolite_Detected
Drug metabolism [19]: Metabolite_Detected
Drug uptake [20]: Active
SMILES: N#Cc1sc2nc3c(cc2c1NC=O)CCCC3
Activity (PC-12 [5]): Active
Activity (PC-12 [11]): Active
Activity (PC-12 [14]): Dose-Dependent Effect

SMILES: CCOC(=O)c1sc2nc3c(cc2c1N)CCCC3
Activity (PC-12 [11]): inactive

SMILES: CC(=O)Nc1c(C#N)sc2nc3c(cc12)CCCC3
Activity (PC-12 [11]): inactive
